Tests used:
[1] = molecular target: T1, Human PDE10A enzyme (Homo sapiens, UniProt Q9Y233); experiment: PDE enzyme inhibition, SPA (Scintillation Proximity Assay) with [3H]cGMP; assay type: biochemical; conditions: [3H]cGMP substrate; for inhibition at 1 µM: compound 1 μM, read-out: Percent inhibition (1 μM); for inhibition at 10 µM: compound 10 μM, read-out: Percent inhibition (10 μM)
T1 construct: transfected with the full-length gene; His-tag; made in house; host or cells: Sf9 or COS-7 cells
Procedure: Human PDE10A enzyme was generated from Sf9 or COS-7 cells transfected with the full-length gene. Cloned enzyme was extracted from homogenized cell pellets. The extracted enzyme from sf9 cells was partially purified using His-tag affinity column. The enzyme was stored at −70° C. until use. PDE activity was measured using a SPA (Scintillation Proximity Assay) (GE Healthcare). To evaluate the inhibitory activity, 10 μL of serial diluted compounds were incubated with 20 μL of PDE enzyme in assay buffer (50 mM HEPES-NaOH, 8.3 mM MgCl2, 1.7 mM EGTA, 0.1% BSA (pH 7.4)) for 30 min. at room temperature. Final concentration of DMSO in the assay was 1 percent as compounds were tested in duplicate in 96-well half-area plates (Corning). To start the reaction, 10 μL of substrate [^3H] cGMP (25 or 50 nM; enclosed in SPA kits from GE Healthcare or purchased from PerkinElmer, respectively) was added for a final assay volume of 40 μL. After 60 min incubation at room temperature, yttrium SPA beads containing Zinc sulphate were added (20 μL at 6 mg/mL) to terminate the PDE reaction. After being settled for 60 min, assay plates were counted in a scintillation counter (PerkinElmer) to allow calculation of inhibition rate. Inhibition rate was calculated on the basis of 0% control wells with DMSO and 100% control wells without enzyme.

T1 sequence (Q9Y233 267-1055): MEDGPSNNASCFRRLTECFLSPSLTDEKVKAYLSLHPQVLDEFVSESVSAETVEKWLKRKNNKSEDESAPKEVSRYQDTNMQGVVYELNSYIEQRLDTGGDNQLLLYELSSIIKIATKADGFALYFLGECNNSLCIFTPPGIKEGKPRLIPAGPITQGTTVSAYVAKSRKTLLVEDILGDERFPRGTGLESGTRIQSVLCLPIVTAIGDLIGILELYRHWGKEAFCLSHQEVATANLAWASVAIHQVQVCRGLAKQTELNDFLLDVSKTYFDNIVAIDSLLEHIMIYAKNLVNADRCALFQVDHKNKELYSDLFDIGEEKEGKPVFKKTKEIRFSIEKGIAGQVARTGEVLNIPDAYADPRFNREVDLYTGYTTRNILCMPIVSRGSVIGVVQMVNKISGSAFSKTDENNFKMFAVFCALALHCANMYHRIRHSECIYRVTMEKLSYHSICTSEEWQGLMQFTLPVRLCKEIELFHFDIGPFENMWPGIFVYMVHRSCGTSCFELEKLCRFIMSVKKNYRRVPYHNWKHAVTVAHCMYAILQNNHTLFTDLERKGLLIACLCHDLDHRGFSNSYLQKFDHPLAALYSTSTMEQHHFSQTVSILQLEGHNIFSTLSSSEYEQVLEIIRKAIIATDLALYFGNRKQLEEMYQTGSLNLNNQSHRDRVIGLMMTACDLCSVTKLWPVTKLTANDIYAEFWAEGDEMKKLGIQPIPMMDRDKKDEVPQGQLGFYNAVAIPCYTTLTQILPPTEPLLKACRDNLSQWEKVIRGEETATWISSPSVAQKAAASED

| inhibition at 1 µM [1] [%] | inhibition at 10 µM [1] [%] | melting point [°C] | SMILES |
| --- | --- | --- | --- |
| 103 | 99 | 270 to 271 | Cc1ccnc2c1n(C(C)C)c(=O)n2-c1ccc(Oc2nc3cccnc3n2C)cc1 [Example 121, 7-methyl-1-(1-methylethyl)-3-{4-[(3-methyl-3H-imidazo[4,5-b]pyridin-2-yl)oxy]phenyl}-1,3-dihydro-2H-imidazo[4,5-b]pyridin-2-one] |
| 109 | 107 | 252 | Cc1cnc2c(c1)n(C(C)C)c(=O)n2-c1ccc(Oc2nc3cccnc3n2C)cc1 [Example 122, 6-methyl-1-(1-methylethyl)-3-{4-[(3-methyl-3H-imidazo[4,5-b]pyridin-2-yl)oxy]phenyl}-1,3-dihydro-2H-imidazo[4,5-b]pyridin-2-one] |
| 99 | 101 | 242 to 243 | CCn1c(=O)n(-c2ccc(Oc3nc4ccccc4n3C)cc2)c2ncncc21 [Example 125, 7-ethyl-9-{4-[(1-methyl-1H-benzimidazol-2-yl)oxy]phenyl}-7,9-dihydro-8H-purin-8-one] |
| 101 | 101 | 195 to 197 | CCn1c(=O)n(-c2ccc(Oc3nc4cccnc4n3C)cc2)c2ncc(OC(F)F)cc21 [Example 127, 6-(difluoromethoxy)-1-ethyl-3-{4-[(3-methyl-3H-imidazo[4,5-b]pyridin-2-yl)oxy]phenyl}-1,3-dihydro-2H-imidazo[4,5-b]pyridin-2-one] |
| 94 | 91 | 171 to 172 | CCn1c(=O)n(-c2ccc(Oc3nc4cccnc4n3C)cc2)c2ncc(OCC(F)F)cc21 [Example 128, 6-(2,2-difluoroethoxy)-1-ethyl-3-{4-[(3-methyl-3H-imidazo[4,5-b]pyridin-2-yl)oxy]phenyl}-1,3-dihydro-2H-imidazo[4,5-b]pyridin-2-one] |
| 89 | 96 | 178 to 179 | CCn1c(=O)n(-c2ccc(Oc3nc4cccnc4n3C)cc2)c2ncc(OCC(F)(F)F)cc21 [Example 129, 1-ethyl-3-{4-[(3-methyl-3H-imidazo[4,5-b]pyridin-2-yl)oxy]phenyl}-6-(2,2,2-trifluoroethoxy)-1,3-dihydro-2H-imidazo[4,5-b]pyridin-2-one] |
| 95 | 98 | 244 to 246 | CCn1c(=O)n(-c2ccc(Oc3nc4cccnc4n3C)cc2)c2nccc(C(F)(F)F)c21 [Example 130, 1-ethyl-3-{4-[(3-methyl-3H-imidazo[4,5-b]pyridin-2-yl)oxy]phenyl}-7-(trifluoromethyl)-1,3-dihydro-2H-imidazo[4,5-b]pyridin-2-one] |
| 101 | 104 | 255 to 256 | CCn1c(=O)n(-c2ccc(N3CCn4c3nc3cccnc34)cc2)c2ncccc21 [Example 134, 3-[4-(2,3-dihydro-1H-imidazo[2′,1′:2,3]imidazo[4,5-b]pyridin-1-yl)phenyl]-1-ethyl-1,3-dihydro-2H-imidazo[4,5-b]pyridin-2-one] |

— patent US8846713B2, “Fused heterocyclic compounds as phosphodiesterases (PDEs) inhibitors” (Takeda Pharmaceutical Company Limited, priority 2010, dated 2014)
